The data set deals with RGC-5 cells. Kind of data set: Cytoprotective action under OGD stress (dead cell rate, nuclear staining). In kind it is cell-based. The note with it: no OGD stress. Here is the method:
The RGC-5 cell line is a cell line from rat retinal ganglion cells and used for in vitro tests for cell damage evaluation. The RGC-5 cell line can be cultured in accordance with the method disclosed in NAKAJIMA Y. et al., Zeaxanthin, a Retinal Carotenoid, Protects Retinal Cells against Oxidative Stress, Current Eye Research, 2009, Vol. 34, pp. 311-318.
Here, the expression OGD stress refers to a state in which the supply of oxygen and glucose is restricted.
RGC-5 cells were added at a concentration of 1×10^3 cells/well to a DMEM medium containing glucose […] that was concentrated at 4.5 times the general concentration and fetal bovine serum (FBS: 10%) of Oseanian origin that was concentrated at 10 times the general concentration, followed by culture for 24 hours. […]
Then, the mixture was washed twice with FBS-free base medium, followed by culture in DMEM medium containing high-concentration glucose […] and general-concentration FBS (1%) for 18 hours. The dead cell rate and the state of reactive oxygen species (ROS) generation were determined via nuclear staining. […] Meanwhile, the state of reactive oxygen species (ROS) generation was determined in accordance with the method disclosed in NAKAJIMA Y. et al., Zeaxanthin, a Retinal Carotenoid, Protects Retinal Cells against Oxidative Stress, Current Eye Research, 2009, Vol. 34, pp. 311-318. […]

For the compound `CC1=NN(c2ccccc2)C(=O)C1` [Edaravone], the “cell death in the absence of OGD stress” value is reported as “did not cause cell death”.
